Measured values reported in PMC8119466, “A screen of FDA-approved drugs identifies inhibitors of protein tyrosine phosphatase 4A3 (PTP4A3 or PRL-3)” (Scientific Reports, 2021).
Structures can show the parent of a compound that is named as a salt. Where two headings read alike, the source gives them in different places.

Legend:
Type in all cases: biochemical
recombinant PRL-1 = target: T1, recombinant PRL-1 (Homo sapiens, UniProt Q93096); assay: In vitro phosphatase assay (DiFMUP hydrolysis), PRL-1; note: test concentration or dose not given here
T1 construct: 6xHis (N, cleaved yes); made in house; host or cells: E. coli One Shot BL21 Star
T1 sequence (Q93096 1-173): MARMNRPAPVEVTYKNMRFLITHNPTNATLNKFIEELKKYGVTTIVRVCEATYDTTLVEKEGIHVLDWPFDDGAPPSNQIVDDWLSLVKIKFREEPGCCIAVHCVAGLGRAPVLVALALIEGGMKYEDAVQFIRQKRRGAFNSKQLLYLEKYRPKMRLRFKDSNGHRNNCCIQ

recombinant PRL-3 = target: T2, recombinant PRL-3 (Homo sapiens, UniProt O75365); assay: In vitro phosphatase assay (DiFMUP hydrolysis), PRL-3; note: test concentration or dose not given here
T2 construct: 6xHis (N, cleaved yes); made in house; host or cells: E. coli One Shot BL21 Star
T2 sequence (O75365 whole entry): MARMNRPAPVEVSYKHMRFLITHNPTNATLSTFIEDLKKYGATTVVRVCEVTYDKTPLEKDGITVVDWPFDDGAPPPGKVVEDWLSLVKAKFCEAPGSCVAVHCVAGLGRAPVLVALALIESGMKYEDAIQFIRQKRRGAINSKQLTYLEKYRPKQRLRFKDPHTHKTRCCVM

recombinant PRL-2 = target: T3, recombinant PRL-2 (Homo sapiens, UniProt Q12974); assay: In vitro phosphatase assay (DiFMUP hydrolysis), PRL-2;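 note: PRL-2 activity read as DiFMUP hydrolysis after 20 min at room temperature with drug, enzyme first pre-reduced at 4 °C for 20 min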
T3 construct: 6xHis (N, cleaved yes); made in house; host or cells: E. coli One Shot BL21 Star
T3 sequence (Q12974 1-167): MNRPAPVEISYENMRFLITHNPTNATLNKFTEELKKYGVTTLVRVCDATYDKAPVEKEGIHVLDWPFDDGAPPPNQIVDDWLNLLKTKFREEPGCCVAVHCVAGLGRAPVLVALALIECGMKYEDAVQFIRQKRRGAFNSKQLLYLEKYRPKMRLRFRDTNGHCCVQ

[1] = FDA-approved drug screen, compared to DMSO

SMILES	% Phosphatase Activity (compared to DMSO) PRL-1 (recombinant PRL-1; [1])	% Phosphatase Activity (compared to DMSO) PRL-3 (recombinant PRL-3; [1])	% Phosphatase Activity (compared to DMSO) PRL-2 (recombinant PRL-2; [1])	% Phosphatase Activity (compared to DMSO) PRL-1 (recombinant PRL-1)	% Phosphatase Activity (compared to DMSO) PRL-3 (recombinant PRL-3)	% Phosphatase Activity (compared to DMSO) PRL-2 (recombinant PRL-2)
CCOC(=O)c1c(C)n(C)c2ccc(O)cc12 [Mecarbinate]	108%	77%	100%	–	–	–
Cc1cccc(CN2CCN(C(c3ccccc3)c3ccc(Cl)cc3)CC2)c1.Cl.Cl (stereo not drawn) [Meclizine 2HCl]	103%	96%	112%	–	–	–
Cc1ccc(Cl)c(Nc2ccccc2C(=O)O)c1Cl [Meclofenamate Sodium]	99%	81%	104%	–	–	–
Cc1cccc(C(C)c2cnc[nH]2)c1C (stereo not drawn) [Medetomidine HCl]	–	–	–	109%	99%	113%
CC(=O)O[C@]1(C(C)=O)CC[C@H]2[C@@H]3C[C@H](C)C4=CC(=O)CC[C@]4(C)[C@H]3CC[C@@]21C [Medroxyprogesterone acetate]	89%	85%	89%	–	–	–
Cc1cccc(Nc2ccccc2C(=O)O)c1C [Mefenamic Acid]	98%	82%	107%	–	–	–
OC(c1cc(C(F)(F)F)nc2c(C(F)(F)F)cccc12)C1CCCCN1 (stereo not drawn) [Mefloquine HCl]	100%	109%	106%	–	–	–
CC(=O)O[C@]1(C(C)=O)CC[C@H]2[C@@H]3C=C(C)C4=CC(=O)CC[C@]4(C)[C@H]3CC[C@@]21C [Megestrol Acetate]	86%	67%	92%	–	–	–
CNC[C@H](O)[C@@H](O)[C@H](O)[C@H](O)CO [Meglumine]	105%	110%	125%	–	–	–
COc1ccc2[nH]cc(CCNC(C)=O)c2c1 [Melatonin]	125%	81%	108%	–	–	–
Cc1cnc(NC(=O)C2=C(O)c3ccccc3S(=O)(=O)N2C)s1 [Meloxicam]	74%	83%	75%	–	–	–
CC12CC3CC(C)(C1)CC(N)(C3)C2 [Memantine HCl]	83%	94%	107%	–	–	–
CC1=CC(=O)c2ccccc2C1=O [Menadione]	62%	62%	75%	–	–	–
C[N+]1(C)CCCC(OC(=O)C(O)(c2ccccc2)c2ccccc2)C1 (stereo not drawn) [Mepenzolate Bromide]	93%	80%	93%	–	–	–
[O-][n+]1cccc(CO)c1 [Mepiroxol]	100%	87%	112%	–	–	–
Cc1cccc(C)c1NC(=O)C1CCCCN1C (stereo not drawn) [Mepivacaine HCl]	86%	87%	104%	–	–	–
C[C@H]1C[C@H]2[C@@H]3CCC4=CC(=O)C=C[C@]4(C)[C@H]3C(=O)C[C@]2(C)[C@@]1(O)C(=O)CO [Meprednisone]	99%	78%	97%	–	–	–

SMILES	% Phosphatase Activity (compared to DMSO) PRL-1 (recombinant PRL-1; [1])	% Phosphatase Activity (compared to DMSO) PRL-3 (recombinant PRL-3; [1])	% Phosphatase Activity (compared to DMSO) PRL-2 (recombinant PRL-2; [1])	% Phosphatase Activity (compared to DMSO) PRL-1 (recombinant PRL-1)	% Phosphatase Activity (compared to DMSO) PRL-3 (recombinant PRL-3)	% Phosphatase Activity (compared to DMSO) PRL-2 (recombinant PRL-2)
CCC1(c2cccc(O)c2)CCCCN(C)C1 (stereo not drawn) [Meptazinol HCl]	106%	84%	124%	–	–	–
COc1ccc(O)cc1 [Mequinol]	104%	85%	120%	–	–	–
S=c1nc[nH]c2nc[nH]c12 [Mercaptopurine (6-MP)]	93%	74%	76%	–	–	–
C[C@@H](O)[C@H]1C(=O)N2C(C(=O)O)=C(S[C@@H]3CN[C@H](C(=O)N(C)C)C3)[C@H](C)[C@H]12 [Meropenem]	104%	57%	109%	–	–	–
Nc1ccc(O)c(C(=O)O)c1 [Mesalamine]	112%	82%	131%	–	–	–
O=S(=O)(O)CCS [Mesna]	95%	102%	93%	–	–	–
CN1CCCCC1CCN1c2ccccc2Sc2ccc([S+](C)[O-])cc21 (stereo not drawn) [Mesoridazine Besylate]	–	–	–	98%	99%	95%
CC(C)NCC(O)c1cc(O)cc(O)c1 (stereo not drawn) [Metaproterenol Sulfate]	98%	95%	112%	–	–	–
C[C@H](N)[C@H](O)c1cccc(O)c1 [Metaraminol Bitartrate]	112%	94%	106%	–	–	–
CN(C)C(=N)N=C(N)N [Metformin HCl]	102%	87%	78%	–	–	–
C=C1c2cccc(O)c2C(=O)C2=C(O)[C@]3(O)C(=O)C(C(N)=O)=C(O)[C@@H](N(C)C)[C@@H]3[C@@H](O)[C@H]12 [Methacycline HCl]	82%	83%	65%	–	–	–
CC(=O)/N=c1/sc(S(N)(=O)=O)nn1C [Methazolamide]	110%	88%	114%	–	–	–
C1N2CN3CN1CN(C2)C3 [Methenamine]	112%	87%	109%	–	–	–
Cn1cc[nH]c1=S [Methimazole]	104%	82%	97%	–	–	–
COc1ccccc1OCC(O)COC(N)=O (stereo not drawn) [Methocarbamol]	92%	100%	91%	–	–	–
CN(Cc1cnc2nc(N)nc(N)c2n1)c1ccc(C(=O)N[C@@H](CCC(=O)O)C(=O)O)cc1 [Methotrexate]	92%	70%	83%	–	–	–
COc1c2occc2cc2ccc(=O)oc12 [Methoxsalen]	81%	78%	99%	–	–	–
